The values that follow come from ChEMBL document CHEMBL4041480, “Natural and synthetic bioactive inhibitors of glycogen synthase kinase” (Eur J Med Chem, 2017).

A word on the IC50: it is the point on the concentration scale where inhibition reaches its midpoint.

Assay [1] deals with T1, Glycogen synthase kinase-3 beta (Homo sapiens, UniProt P49841).
Assay [2] deals with T1, Glycogen synthase kinase-3 beta. This is another data set of the same source.
Assay [3] shares this target. The source holds these as a separate data set.
Description: Inhibition of full length recombinant human His-tagged GSK3beta expressed in baculovirus expression system using Ser/Thr 9 peptide substrate by Z'-LYTE assay
The target is the same in assay [4]. The source holds these as a separate data set.
Description: Inhibition of GST-tagged GSK3beta (unknown origin) expressed in Escherichia coli BL21-CodonPlus (DE3) by Z'-LYTE assay

T1 sequence (P49841 whole entry): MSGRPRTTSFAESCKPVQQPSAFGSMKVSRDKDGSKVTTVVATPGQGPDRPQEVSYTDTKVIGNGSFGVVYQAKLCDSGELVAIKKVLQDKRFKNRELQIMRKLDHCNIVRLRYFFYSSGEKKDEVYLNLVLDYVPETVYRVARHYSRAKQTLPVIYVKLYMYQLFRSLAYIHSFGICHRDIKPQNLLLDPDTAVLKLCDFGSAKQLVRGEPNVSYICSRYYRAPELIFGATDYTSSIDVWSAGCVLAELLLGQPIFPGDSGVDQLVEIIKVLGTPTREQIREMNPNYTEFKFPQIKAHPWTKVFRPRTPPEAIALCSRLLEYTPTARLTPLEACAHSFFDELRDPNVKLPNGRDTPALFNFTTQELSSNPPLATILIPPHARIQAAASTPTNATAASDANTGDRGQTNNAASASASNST

As for `[Zn]`, it took 15000 nM to reach half-maximal inhibition in assay [1] (IC50). The same measure, in the same setting: as for `N=C1N[C@H]2c3c([nH]c(Br)c3Br)C(=O)C3CCC[C@@]32N1` (stereo not given in full), the figure is 3000 nM.

`O=c1[nH]nc2c(NCCc3ccncc3)cc(Cl)cn12` showed an IC50 in assay [2] of 111 nM. `O=C1NC(=O)C(c2cn(CCC3N=CC=N3)c3ccccc23)=C1c1noc2ccccc12` came in with a half-inhibitory concentration (IC50) in assay [3] of 0.73 nM. Regarding `Cn1cc(C2=C(c3nn(CCCN4CCOCC4)c4ncccc34)C(=O)NC2=O)c2ccccc21`, half-maximal inhibition in assay [4] (IC50) was put at 340 nM.
